Test [1] is described as follows: Plasma insulin and plasma glucose in STZ-treated mice without or with insulin. The class given is in vivo. The source says:
Animals Fifteen-week-old ob/ob mice and their wild-type C57BL/6 mice were obtained from CharlesRiver Breeding Laboratories (Wilmington, Mass.). Male mice were housed in colony cages, maintained on a 12-h light/12-h dark cycle. Our high-fat diet contains oil 1152 g (from Benibana, Japan; safflower oil [high-oleic type] contained 46% oleic acid (18:1n-9) and 45% linoleic acid (18:2n-6) from total fatty acids), casein 1191.6 g (Oriental Yeast, Tokyo, Japan, No.19), sucrose 633.6 g (Oriental Yeast, No. 13), vitamin mix 50.4 g (Oriental Yeast, No. 20 (AIN76), mineral mix 352.8 g (Oriental Yeast, No.25 (AIN76), cellulose powder 201.6 g (Oriental Yeast, No.19), DL-methionine 18 g (Wako Pure Chemicals, Osaka, Japan), water 360 ml; total 3600 g (20). Plasma insulin was measured by an insulin immunoassay (Shibayagi, Gunma, Japan). The animal care and procedures were approved by the Animal Care Committee of the University of Tokyo.
(§1) STZ Treatments Diabetes was induced by a double intraperitoneal injection of 0.2-0.3 ml of 50 mM sodium citrate solution (pH 4.5) containing STZ (200 mg/kg body weight). Control (non-STZ) mice were injected with 50 mM sodium citrate solution (pH 4.5). Three days after injection, plasma glucose levels were checked and diabetes was confirmed (glucose level >250 mg/dl). A combination of human regular insulin (1 units/kg; Eli Lilly, Indianapolis, Ind.), each given in 0.2 ml of saline was administered to the STZ+ insulin group. The mice in the STZ+ vehicle and non-STZ groups received 0.2 ml of saline injected both intraperitoneally. After injection of INS or saline, the animals were fasted for 6 h and then hindlim's skeletal muscles were removed.

The test system of test [2] is AdipoR1 mRNA. Kind of test: AdipoR1 mRNA in skeletal muscle of STZ-treated mice (real-time PCR). It is filed as in vivo. The conditions noted are these: FIG. 2C. As for the experimental part:
as §1
(§2) Quantitative analysis of AdipoR1 and R2 transcripts by Northern blot and Real-time PCR Total RNA was prepared from cells or tissues with TRIzol (GIBCO/BRL) according to the manufacturer's instructions. For quantification of AdipoRs mRNAs, we employed the real-time PCR method (14). The primer sets and the probes for mAdipoR1,2 were as follows; the forward primer for mAdipoR1 was […], the reverse primer, […] and the probe, […]; the forward primer for mAdipoR2 was […], the reverse primer, […] and the probe, […]. The relative amount of each AdipoR transcript was normalized to the amount of actin transcript in the same cDNA (14).
(In general: In qPCR the cycle at which signal appears reflects the starting amount.)

In test [3] the test system is AdipoR2 mRNA. Kind of test: AdipoR2 mRNA in skeletal muscle of STZ-treated mice (real-time PCR). The class given is in vivo. The settings on record: FIG. 2D. As for the experimental part:
as §1, §2

For test [4], the system named is membrane fractions of skeletal muscle. Put plainly: [125I]adiponectin binding assay on membrane fractions of skeletal muscle. The conditions noted are these: wild-type vs ob/ob mice; FIGS. 5A, 5B. As for the experimental part:
Binding Assay Synthetic adiponectin was ^125I-labeled at Tyr by IODO-beads (Pierce) in the presence of Na^125I (2,000 Ci/mmol, Amersham Pharmacia Biotech) according to the manufacturer's protocol. Membrane fractions of muscles were incubated at 4° C. for 1 hr with binding buffer (ice-cold phosphate-buffered saline/0.1% bovine serum albumin) containing designated concentrations of [^125I]adiponectin (5,000 cpm/ng protein) plus unlabeled competitors. […] The cells were then washed three times with ice-cold phosphate-buffered saline, lysed in 0.1 N NaOH/0.1% SDS, and the cell-bound radioactivity was determined using a γ-counter (14). Nonspecific binding was determined using a 200-fold excess of unlabeled adiponectin. Specific binding was calculated by subtracting nonspecific binding from the total binding. The values presented in the “Results” represent an average of triplicate determinations of 3-10 experiments.

Test [5] deals with AMPK. Kind of test: Adiponectin tolerance test: AMPK phosphorylation in skeletal muscle (Western blot). It is filed as in vivo, mice. The settings on record: 50 μg/10 g body weight, 5 min, FIGS. 5C, 5D. As for the experimental part: Generation of recombinant adiponectin, adiponectin tolerance test and Western blot analysis Bacterially expressed murine full-length adiponectin (Ad) was generated as previously described (10, 14). […] Skeletal muscles were isolated 5 min after adiponectin injection. Phosphorylation and amount of AMPK in keletal muscles were determined (10, 14).
On the technique in general: Immunoblotting shows a protein as a band on a membrane.

Where [6] appears, read: skeletal muscle, STZ-treated mice given insulin.
Where [7] appears, read: skeletal muscle of STZ-treated mice.

“insulin: human regular insulin (Eli Lilly) in vivo; insulin added to hepatocytes and C2C12 myocytes in vitro”: in test [1] (STZ plus insulin (1 units/kg) compared with STZ alone, FIG. 2B lanes 2, 3), the plasma glucose levels entry is given as “reduced”. Also, in test [2] (setting [6]), the “AdipoR1 mRNA after insulin treatment” value was “restored nearly completely”. Also, the “AdipoR2 mRNA after insulin treatment” value in test [3] (setting [6]) is “restored nearly completely”.

As to `CN(N=O)C(=O)N[C@H]1C(O)O[C@H](CO)[C@@H](O)[C@@H]1O` (mixture of isomers) [STZ, streptozotocin], the plasma insulin result in test [1] (STZ 200 mg/kg intraperitoneal, mice fasted 6 h, FIG. 2A) is given as “abolished”. The plasma glucose entry in test [1] (STZ-treated vs control mice, fasted 6 h, FIG. 2B lanes 1, 2) was “significant marked increase”. For the same molecule, in test [2] (setting [7]), the “increase in AdipoR1 mRNA” value was 103%. In test [3] (setting [7]), the “increase in AdipoR2 mRNA” value is on record as 38%.

B1: adiponectin: bacterially expressed murine full-length adiponectin; 125I-labeled adiponectin (globular or full-length) in the binding assay (protein)
chain: EDDVTTTEELAPALVPPPKGTCAGWMAGIPGHPGHNGTPGRDGRDGTPGEKGEKGDAGLLGPKGETGDVGMTGAEGPRGFPGTPGRKGEPGEAAYVYRSAFSVGLETRVTVPNVPIRFTKIFYNQQNHYDGSTGKFYCNIPGLYYFSYHITVYMKDVKVSLFKKDKAVLFTYDQYQEKNVDQASGSVLLHLEVGDQVWLQVYGDGDHNGLYADNVNDSTFTGFLLYHDTN
Consider B1, for which the “adiponectin binding to the membrane fractions of skeletal muscle” value in test [4] was “higher binding to the membrane fractions of skeletal muscle of wild-type mice than ob/ob mice”. The “AMPK activation in skeletal muscle” value in test [5] (ob/ob mice (implied)) is “unable to activate AMPK”; in test [5] (wild-type mice) it was “able to activate AMPK”.
